Reference: ChEMBL document CHEMBL3044789, “Comparing weed and crop seedling response to pre-emergence pendimethalin application in Corchorus olitorius and Abelmoschus esculentus” (Crop Prot, 2006)

Experiments:
[1] = test system: Corchorus olitorius; test: Phytotoxicity in Corchorus olitorius assessed as seedling injury at 1.32 kg a.i/ha applied as solution after 7 weeks relative to control; type: organism-based; conditions: in vivo, other, 1176 h
[2] = test system: Ageratum conyzoides; test: Herbicidal activity against Ageratum conyzoides in Abelmoschus esculentus plots assessed as weed cover at 0.33 kg a.i/ha after 2 weeks (reference value: 63.5 +/- 0.29 %); type: functional
[3] = test system: Cyperus rotundus; test: Herbicidal activity against Cyperus rotundus in Abelmoschus esculentus plots assessed as weed cover at 0.66 kg a.i/ha after 2 weeks (reference value: 63.5 +/- 0.29 %); type: functional
[4] = test system: Chromolaena odorata; test: Herbicidal activity against Chromolaena odorata in Corchorus olitorius plots assessed as weed recovery at 0.99 kg a.i/ha after 2 weeks (reference value: 78.3 +/- 0.74 %); type: functional
[5] = test system: Corchorus olitorius; test: Phytotoxicity in Corchorus olitorius assessed as root length at 0.33 kg a.i/ha treated to soil after 7 weeks (reference value: 16.9 +/- 0.09 mm); type: organism-based; conditions: in vivo, other, 1176 h
[6] = test system: Ageratum conyzoides; test: Herbicidal activity against Ageratum conyzoides in Abelmoschus esculentus plots assessed as weed cover at 1.32 kg a.i/ha after 7 weeks (reference value: 14.7 +/- 0.46 %); type: functional
[7] = test system: Abelmoschus esculentus; test: Phytotoxicity in Abelmoschus esculentus assessed as seed germination at 0.33 kg a.i/ha applied as solution after 7 weeks (reference value: 85.7 +/- 0.36 %); type: organism-based; conditions: in vivo, other, 1176 h
[8] = test system: Rottboellia cochinchinensis; test: Herbicidal activity against Rottboellia cochinchinensis in Abelmoschus esculentus plots assessed as weed cover at 0.33 kg a.i/ha after 2 weeks (reference value: 63.5 +/- 0.29 %); type: functional
[9] = test system: Corchorus olitorius; test: Phytotoxicity in Corchorus olitorius assessed as shoot length at 0.99 kg a.i/ha treated to soil after 7 weeks (reference value: 23.7 +/- 0.10 mm); type: organism-based; conditions: in vivo, other, 1176 h
[10] = test system: Ageratum conyzoides; test: Herbicidal activity against Ageratum conyzoides in Corchorus olitorius plots assessed as weed cover at 0.33 kg a.i/ha after 4 weeks (reference value: 20.1+/- 0.57 %); type: functional
[11] = test system: Calopogonium mucunoides; test: Herbicidal activity against Calopogonium mucunoides in Corchorus olitorius plots assessed as weed recovery at 1.32 kg a.i/ha after 2 weeks (reference value: 78.3 +/- 0.74 %); type: functional
[12] = test system: Talinum fruticosum; test: Herbicidal activity against Talinum fruticosum in Abelmoschus esculentus plots assessed as weed cover at 0.99 kg a.i/ha after 2 weeks (reference value: 63.5 +/- 0.29 %); type: functional
[13] = test system: Euphorbia heterophylla; test: Herbicidal activity against Euphorbia heterophylla in Corchorus olitorius plots assessed as weed cover at 1.32 kg a.i/ha after 4 weeks (reference value: 20.1+/- 0.57 %); type: functional
[14] = test system: Calopogonium mucunoides; test: Herbicidal activity against Calopogonium mucunoides in Corchorus olitorius plots assessed as weed cover at 0.99 kg a.i/ha after 7 weeks (reference value: 1.7 +/- 0.56 %); type: functional
[15] = test system: Euphorbia heterophylla; test: Herbicidal activity against Euphorbia heterophylla in Corchorus olitorius plots assessed as major weed growth at 1.32 kg a.i/ha after 2 weeks; type: functional
[16] = test system: Calopogonium mucunoides; test: Herbicidal activity against Calopogonium mucunoides in Corchorus olitorius plots assessed as weed cover at 0.33 kg a.i/ha after 2 weeks (reference value: 81.7 +/- 0.43 %); type: functional
[17] = test system: Corchorus olitorius; test: Phytotoxicity in Corchorus olitorius assessed as shoot length at 0.33 kg a.i/ha applied as solution after 7 weeks (reference value: 22.9 +/- 0.8 mm); type: organism-based; conditions: in vivo, other, 1176 h
[18] = test system: Abelmoschus esculentus; test: Phytotoxicity in Abelmoschus esculentus assessed as crop seedling injury at 0.99 kg a.i/ha after 2 weeks relative to untreated control; type: organism-based; conditions: in vivo, 336 h
[19] = test system: Calopogonium mucunoides; test: Herbicidal activity against Calopogonium mucunoides in Abelmoschus esculentus plots assessed as weed recovery at 0.33 kg a.i/ha after 2 weeks (reference value: 60.1 +/- 0.46 %); type: functional
[20] = test system: Abelmoschus esculentus; test: Phytotoxicity in Abelmoschus esculentus assessed as seedling injury at 0.99 kg a.i/ha applied as solution after 7 weeks relative to control; type: organism-based; conditions: in vivo, other, 1176 h
[21] = test system: Mimosa pudica; test: Herbicidal activity against Mimosa pudica in Abelmoschus esculentus plots assessed as weed cover at 0.33 kg a.i/ha after 7 weeks (reference value: 14.7 +/- 0.46 %); type: functional
[22] = test system: Mimosa pudica; test: Herbicidal activity against Mimosa pudica in Abelmoschus esculentus plots assessed as weed cover at 0.33 kg a.i/ha after 4 weeks (reference value: 22.6 +/- 0.49 %); type: functional
[23] = test system: Calopogonium mucunoides; test: Herbicidal activity against Calopogonium mucunoides in Abelmoschus esculentus plots assessed as major weed growth at 0.33 kg a.i/ha after 2 weeks; type: functional
[24] = test system: Abelmoschus esculentus; test: Phytotoxicity in Abelmoschus esculentus assessed as seedling injury at 1.32 kg a.i/ha applied as solution after 7 weeks relative to control; type: organism-based; conditions: in vivo, other, 1176 h
[25] = test system: Synedrella nodiflora; test: Herbicidal activity against Synedrella nodiflora in Corchorus olitorius plots assessed as minor weed growth at 1.32 kg a.i/ha after 2 weeks; type: functional
[26] = test system: Abelmoschus esculentus; test: Phytotoxicity in Abelmoschus esculentus assessed as root length at 0.33 kg a.i/ha applied as solution after 7 weeks (reference value: 23 +/- 0.34 mm); type: organism-based; conditions: in vivo, other, 1176 h
[27] = test system: Calopogonium mucunoides; test: Herbicidal activity against Calopogonium mucunoides in Corchorus olitorius plots assessed as weed cover at 0.99 kg a.i/ha after 2 weeks (reference value: 81.7 +/- 0.43 %); type: functional
[28] = test system: Abelmoschus esculentus; test: Phytotoxicity in Abelmoschus esculentus assessed as seedling injury at 0.66 kg a.i/ha applied as solution after 7 weeks relative to control; type: organism-based; conditions: in vivo, other, 1176 h
[29] = test system: Calopogonium mucunoides; test: Herbicidal activity against Calopogonium mucunoides in Corchorus olitorius plots assessed as major weed growth at 1.32 kg a.i/ha after 2 weeks; type: functional
[30] = test system: Synedrella nodiflora; test: Herbicidal activity against Synedrella nodiflora in Corchorus olitorius plots assessed as weed cover at 0.66 kg a.i/ha after 2 weeks (reference value: 81.7 +/- 0.43 %); type: functional
[31] = test system: Rottboellia cochinchinensis; test: Herbicidal activity against Rottboellia cochinchinensis in Abelmoschus esculentus plots assessed as major weed growth at 0.33 kg a.i/ha after 2 weeks; type: functional
[32] = test system: Synedrella nodiflora; test: Herbicidal activity against Synedrella nodiflora in Abelmoschus esculentus plots assessed as weed cover at 1.32 kg a.i/ha after 4 weeks (reference value: 22.6 +/- 0.49 %); type: functional
[33] = test system: Chromolaena odorata; test: Herbicidal activity against Chromolaena odorata in Corchorus olitorius plots assessed as major weed growth at 0.33 kg a.i/ha after 2 weeks; type: functional
[34] = test system: Corchorus olitorius; test: Phytotoxicity in Corchorus olitorius assessed as crop seedling injury at 0.66 kg a.i/ha after 2 weeks relative to untreated control; type: organism-based; conditions: in vivo, 336 h
[35] = test system: Ageratum conyzoides; test: Herbicidal activity against Ageratum conyzoides in Abelmoschus esculentus plots assessed as weed cover at 0.33 kg a.i/ha after 4 weeks (reference value: 22.6 +/- 0.49 %); type: functional
[36] = test system: Synedrella nodiflora; test: Herbicidal activity against Synedrella nodiflora in Abelmoschus esculentus plots assessed as weed cover at 0.66 kg a.i/ha after 7 weeks (reference value: 14.7 +/- 0.46 %); type: functional
[37] = test system: Chromolaena odorata; test: Herbicidal activity against Chromolaena odorata in Corchorus olitorius plots assessed as weed cover at 0.99 kg a.i/ha after 2 weeks (reference value: 81.7 +/- 0.43 %); type: functional

SMILES: CCC(CC)Nc1c([N+](=O)[O-])cc(C)c(C)c1[N+](=O)[O-] [PENDIMETHALIN]
- Activity [1]: 66.7%
- Activity [2]: 56.8%
- Activity [3]: 50.8%
- Activity [4]: 21.7%
- Activity [5]: 14.2 mm
- Activity [6]: 82.4%
- Activity [7]: 52.7%
- Activity [8]: 56.8%
- Activity [9]: 22.5 mm
- Activity [10]: 73.3%
- Activity [11]: 13.3%
- Activity [12]: 47.9%
- Activity [13]: 33.3%
- Activity [14]: 95%
- Activity [15]: 31 /m2
- Activity [16]: 63.3%
- Activity [17]: 7 mm
- Activity [18]: 47.9%
- Activity [19]: 39.2%
- Activity [20]: 47.9%
- Activity [21]: 90%
- Activity [22]: 53.8%
- Activity [23]: 31 /m2
- Activity [24]: 56.8%
- Activity [25]: 1 /m2
- Activity [26]: 11.7 mm
- Activity [27]: 51.7%
- Activity [28]: 39.2%
- Activity [29]: 31 /m2
- Activity [30]: 51.7%
- Activity [31]: 31 /m2
- Activity [32]: 36.2%
- Activity [33]: 31 /m2
- Activity [34]: 41.7%
- Activity [35]: 53.8%
- Activity [36]: 90%
- Activity [37]: 51.7%
